Like-named read-outs stand apart in the source and are kept apart here.
Tests used:
[1] = logP(neutral) by reverse phase chromatography, potassium dihydrogen phosphate / acetonitrile; assay type: physicochemical; conditions: potassium dihydrogen phosphate / acetonitrile
[2] = system: Myzus persicae resistant to organophosphorus pesticide and carbamate agent; experiment: Test to Myzus persicae resistant to organophosphorus pesticide and carbamate agent (egg plant seedlings); assay type: in vivo; conditions: 168 h, effective ingredient concentration 100 ppm, seven days after spraying, read-out: pesticide effect, insect mortality
Procedure: Test to Myzus persicae resistant to organophosphorus pesticide and carbamate agent
(§1) Solvent: dimethylformamide 3 parts by weight Emulsifier: polyoxyethylene alkyl phenyl ether 1 part by weight
(§2) In order to prepare preparations of suitable active compounds, 1 part by weight of each of the active compounds was blended with the above amount of the solvent containing the above amount of the emulsifier, and the resulting mixture was diluted to a prescribed concentration with water.
On egg plant seedlings planted in a plastic pot of a diameter of 6 cm, 30 bred Myzus persicae resistant to organophosphorus pesticide and carbamate agent per one seedling were inoculated. After 1 day elapsed since the inoculation, a sufficient amount of the solution diluted with water and having a prescribed concentration of the active compound was sprayed. After the spraying, the pot was allowed to stand in a greenhouse of 28° C. After seven days elapsed since the spraying, insect mortality was calculated. The test was carried out twice.

Myzus persicae = experiment: Test to Myzus persicae (Brassica pekinensis leaf disc spray); assay type: in vivo; conditions: foliar, read-out: pesticide effect, insect mortality
Procedure: Solvent: acetone 78.0 parts by weight and dimethylformamide 1.5 parts by weight Emulsifier: alkyl aryl polyglycol ether 0.5 parts by weight
as §2
On a leaf disc of Brassica pekinensis, Myzus persicae including all growth stage was inoculated. The solution diluted with water and having a prescribed concentration of the active compound was sprayed by a spray gun. Insect mortality was calculated after prescribed days elapsed. 100% insect mortality means that all the individuals died, and 0% insect mortality means that all the individuals were alive.

[3] = system: Spodoptera litura third instar larvae; experiment: Test to larva of Spodoptera litura (sweet potato leaf dip); assay type: in vivo; conditions: foliar, 168 h, read-out: insect mortality
Procedure: Test to Larva of Spodoptera litura
as §1, §2
Leaves of sweet potato were immersed in the tested liquid medication of a prescribed concentration diluted with water. After air drying of the liquid medication, the leaves were put into a petri dish of a diameter of 9 cm, and 10 Spodoptera litura third instar larvae were released in the petri dish, and the petri dish was placed in a constant temperature room of 25° C. Two days later and four days later, leaves of sweet potato were added. Seven days later, the number of dead insects was examined, and insect mortality was calculated.
In the present test, results of 2 petri dishes for each compound were averaged.

Musca domestica = experiment: Test to Musca domestica (adults, sugar sponge); assay type: in vivo; conditions: effective ingredient concentration 100 ppm, read-out: insecticide activity (mortality)
Procedure: (§3) Solvent: dimethylsulfoxide
(§4) In order to prepare preparations of suitable active compounds, 10 mg of each of the active compounds was dissolved into 0.5 ml of the above solvent, and the resulting mixture was diluted to a prescribed concentration with water.
As a preparative stage of the test, a fixed size of sponge was soaked in a mixture of sugar and the compound aqueous solution prepared in the above, and was placed in a test container. Ten adults of Musca domestica were put into the container, and the container was closed with a cap having ventilation holes. After a fixed time passed, a mortality rate of Musca domestica was acquired. 100% mortality means that all the individuals were dead, and 0% mortality means that all the individuals were alive.

Lucilia cuprina = experiment: Test to Lucilia cuprina (larvae on horse minced meat); assay type: in vivo; conditions: effective ingredient concentration 100 ppm, read-out: insecticide activity (mortality)
Procedure: as §3, §4
About 20 to 30 larvae of Lucilia cuprina were put into the test tube in which 1 cm^3 of horse minced meat and 0.5 ml of the aqueous solution of the compound prepared in the above were put. After a fixed time passed, the mortality of the Lucilia cuprina was obtained. 100% mortality means that all the individuals were dead, and 0% mortality means that all the individuals were alive.

[4] = Spodoptera litura third instar larvae, active ingredient concentration 20 ppm, seven days later, 25° C.

Structure (SMILES)	logP (neutral) [1]	mortality at 100 ppm [2] [%]	mortality at 20 ppm ([3]; Spodoptera litura) [%]	mortality at 20 ppm [3, 4] [%]	other results
Cc1cc(Cn2nc(C(F)(F)C(F)(F)F)nc2C(F)(F)F)ccc1NC(=O)c1c(Cl)ccc(Cl)c1C(=O)N[C@@H](C)C[S+](C)[O-] (some centres unmarked) [11-28]	logP (neutral) 2.90	–	–	–	–
CSC[C@H](C)NC(=O)c1c(OC(F)(F)F)cccc1C(=O)Nc1ccc(Cn2nc(C(F)(F)F)cc2C(F)(F)F)cc1C [13-13, N^1-(4-{[3,5-bis(trifluoromethyl)-1H-pyrazol-1-yl]methyl}-2-methylphenyl)-N^2-[(1S)-1-methyl-2-(methylthio)ethyl]-3-(trifluoromethoxy)-1,2-benzenedicarboxamide]	–	100	100	–	mortality at 100 g/ha (Myzus persicae): ≥ 70%
CSC[C@H](C)NC(=O)c1c(Br)cccc1C(=O)Nc1ccc(Cn2nc(C(F)(F)C(F)(F)C(F)(F)F)cc2C(F)(F)F)nc1C [13-128]	4.42	–	–	–	–
CSC[C@H](C)NC(=O)c1c(Br)cccc1C(=O)Nc1ccc(Cn2cc(C(F)(F)C(F)(F)F)c(C(F)(F)C(F)(F)F)n2)cc1C [13-132, N^1-(4-{[3,4-bis(pentafluoroethyl)-1H-pyrazol-1-yl]methyl}-2-methylphenyl)-3-bromo-N^2-[(1S)-1-methyl-2-(methylthio)ethyl]-1,2-benzenedicarboxamide]	–	–	–	100	mortality at 100 ppm (Musca domestica): ≥ 70%; mortality at 100 ppm (Lucilia cuprina): ≥ 80%
Cc1cc(Cn2cc(C(F)(F)C(F)(F)F)c(C(F)(F)C(F)(F)F)n2)ccc1NC(=O)c1cccc(Br)c1C(=O)N[C@@H](C)C[S+](C)[O-] (stereo partly drawn) [13-137, N^1-(4-{[3,4-bis(pentafluoroethyl)-1H-pyrazol-1-yl]methyl}-2-methylphenyl)-3-bromo-N^2-[(1S)-1-methyl-2-(methylsulfinyl)ethyl]-1,2-benzenedicarboxamide]	–	–	–	100	mortality at 100 ppm (Musca domestica): ≥ 70%; mortality at 100 ppm (Lucilia cuprina): ≥ 80%
CSC[C@H](C)NC(=O)c1c(C#N)cccc1C(=O)Nc1ccc(Cn2nc(C(F)(F)F)cc2C(F)(F)F)cc1C [13-172, N^1-(4-{[3,5-bis(trifluoromethyl)-1H-pyrazol-1-yl]methyl}-2-methylphenyl)-3-cyano-N^2-[(1S)-1-methyl-2-(methylthio)ethyl]-1,2-benzenedicarboxamide]	–	100	100	–	mortality at 100 g/ha (Myzus persicae): ≥ 70%
CSC[C@H](C)NC(=O)c1c(C(=O)Nc2ccc(Cn3nc(C(F)(F)F)cc3C(F)(F)F)nc2C)cccc1S(=O)(=O)N(C)C [13-287]	3.42	–	–	–	–
CCSC[C@H](C)NC(=O)c1c(SC)cccc1C(=O)Nc1ccc(Cn2nc(C(F)(F)F)cc2C(F)(F)F)cc1C [13-291, N^1-(4-{[3,5-bis(trifluoromethyl)-1H-pyrazol-1-yl]methyl}-2-methylphenyl)-N^2-[(1S)-1-methyl-2-(ethylthio)ethyl]-3-methylthio-1,2-benzenedicarboxamide]	–	–	–	100	mortality at 100 g/ha (Myzus persicae; spraying amount 100 g/ha): ≥ 70%
CSC[C@H](C)NC(=O)c1c(Cl)cccc1C(=O)Nc1ccc(Cn2nc(C(F)(F)F)n(C)c2=O)nc1C [14-320]	2.16	–	–	–	–
CSC[C@H](C)NC(=O)c1c(Cl)cccc1C(=O)Nc1ccc(CN2N=C(C(F)(F)C(F)(F)F)NC2C(F)(F)F)cc1C (stereo partly drawn) [16-4, 3-chloro-N^1-(2-methyl-4-{[3-(pentafluoroethyl)-5-(trifluoromethyl)-4,5-dihydro-1H-1,2,4-triazol-1-yl]methyl}phenyl)-N^2-[(1S)-1-methyl-2-(methylthio)ethyl]-1,2-benzenedicarboxamide]	–	100	100	–	–

Reference: patent US20110184188A1, “Insecticidal Benzenedicarboxamide Derivative” (priority 2008, published 2011)
